Reference: patent publication US9994558B2, “Multicyclic compounds and methods of using same” (Karyopharm Therapeutics Inc., priority 2013, dated 2018)
pIC50: −log10 of the molar value.

Legend:
Assay type in all cases: cell-based
Z138 cells = experiment: MTT cell proliferation assay, Z138 cells; details: Homo sapiens, Z-138, incubation approximately 64-72 hours
Experimental: (§1) The MTT cell proliferation assay was used to study the cytotoxic properties of the compounds. The assay was performed according to the method described by Roche Molecular Biochemicals, with minor modifications. The assay is based on the cleavage of the tetrazolium salt, MTT, in the presence of an electron-coupling reagent. The water-insoluble formazan salt produced must be solubilized in an additional step. Cells grown in a 96-well tissue culture plate were incubated with the MTT solution for approximately 4 hours. After this incubation period, a water-insoluble formazan dye formed. After solubilization, the formazan dye was quantitated using a scanning multi-well spectrophotometer (ELISA reader). […] The cells were seeded at 5,000-10,000 cells in each well of 96-well plate in 100 μL of fresh culture medium and were allowed to attach overnight. The stock solutions of the compounds were diluted in 100 μL cell culture medium to obtain eight concentrations of each test compound, ranging from 1 nM to 30 μM. […] All optical densities were measured at 490 nm using a Vmax Kinetic Microplate Reader (Molecular Devices). In most cases, the assay was performed in duplicate and the results were presented as a mean percent inhibition to the negative control±SE. The following formula was used to calculate the percent of inhibition. Inhibition (%)=(1−(ODo/OD))×100.
(§2) The compounds were tested against MS751, Z138 and 3T3 cells. The MS751 cell line is derived from a metastasis to lymph node of human cervix from a patient diagnosed with squameous cell carcinoma of the cervix. The […] cell line is a mature B-cell acute lymphoblastic leukemia cell line derived from a patient with chronic lymphocytic leukemia. 3T3 cells are standard fibroblast cells; they were originally isolated from Swiss mouse embryo tissue.

MS751 cells = experiment: MTT cell proliferation assay, MS751 cells; details: Homo sapiens, incubation approximately 64-72 hours
Experimental: as §1, §2

3T3 cells = experiment: MTT cell proliferation assay, 3T3 cells; details: Mus musculus, NIH3T3; 3T3 fibroblast cells; incubation approximately 64-72 hours
Experimental: as §1, §2

Work on `Nc1ccc(/C=C/C(=O)NCCOc2ccc(-c3cccc(C(=O)N4CCOCC4)c3)cc2Cl)cn1` [Compound 317, (E)-3-(6-aminopyridin-3-yl)-N-(2-(3-chloro-3′-(morpholine-4-carbonyl)biphenyl-4-yloxy)ethyl)acrylamide] yielded a pIC50 (Z138 cells) of over 7.00, a pIC50 (MS751 cells) of over 7.00 and a pIC50 (3T3 cells) of under 5.00.
For `CC(=O)c1ccc(-c2ccc(OCCNC(=O)/C=C/c3cccnc3)c(Cl)c2)s1` [Compound 300, (E)-N-(2-(4-(5-acetylthiophen-2-yl)-2-chlorophenoxy)ethyl)-3-(pyridin-3-yl)acrylamide], the pIC50 (Z138 cells) was 5.30 to 7.00, the pIC50 (MS751 cells) was 5.30 to 7.00 and the pIC50 (3T3 cells) was under 5.00.
`Nc1ccc(/C=C/C(=O)NCCOc2ccc(-c3nnc(C(=O)N4CCOCC4)o3)cc2Cl)cn1` [Compound 351, (E)-3-(6-aminopyridin-3-yl)-N-(2-(2-chloro-4-(5-(morpholine-4-carbonyl)-1,3,4-oxadiazol-2-yl)phenoxy)ethyl)acrylamide] was tested, and the pIC50 (Z138 cells) was 5.30 to 7.00, the pIC50 (MS751 cells) was 5.30 to 7.00 and the pIC50 (3T3 cells) was under 5.00.
`Nc1ccc(/C=C/C(=O)NCCCOc2ccc(-c3ccc(C(=O)N4CCOCC4)cc3)cc2Cl)cn1` [Compound 348, (E)-3-(6-aminopyridin-3-yl)-N-(3-(3-chloro-4′-(morpholine-4-carbonyl)biphenyl-4-yloxy)propyl)acrylamide] gave a pIC50 (Z138 cells) of over 7.00, a pIC50 (MS751 cells) of over 7.00 and a pIC50 (3T3 cells) of 5.30 to 7.00.
For `Nc1ccc(/C=C/C(=O)NCCS(=O)(=O)c2ccc(-c3ccc(C(=O)N4CC(F)(F)C4)cc3)cc2Cl)cn1` [Compound 337, (E)-3-(6-aminopyridin-3-yl)-N-(2-(3-chloro-4′-(3,3-difluoroazetidine-1-carbonyl)biphenyl-4-ylsulfonyl)ethyl)acrylamide], the pIC50 (Z138 cells) was under 5.00, the pIC50 (MS751 cells) was under 5.00 and the pIC50 (3T3 cells) was under 5.00.
Work on `CC(=O)c1ccc(-c2cnc(OCCNC(=O)/C=C/c3ccc(N)nc3)c(Cl)c2)s1` [Compound 331, (E)-N-(2-(5-(5-acetylthiophen-2-yl)-3-chloropyridin-2-yloxy)ethyl)-3-(6-aminopyridin-3-yl)acrylamide] yielded a pIC50 (Z138 cells) of under 5.00, a pIC50 (MS751 cells) of under 5.00 and a pIC50 (3T3 cells) of under 5.00.
Molecule `CC(=O)c1ccc(-c2ccc(OCCN(C)C(=O)/C=C/c3cccnc3)c(Cl)c2)s1` [Compound 311, (E)-N-(2-(4-(5-acetylthiophen-2-yl)-2-chlorophenoxy)ethyl)-N-methyl-3-(pyridin-3-yl)acrylamide] has a pIC50 (Z138 cells) of 5.30 to 7.00, a pIC50 (MS751 cells) of 5.30 to 7.00 and a pIC50 (3T3 cells) of 5.30 to 7.00.
Work on `CN1CCN(C(=O)c2ccc(-c3ccc(OCCNC(=O)/C=C/c4ccc(N)nc4)c(Cl)c3)cc2)CC1` [Compound 313, (E)-3-(6-aminopyridin-3-yl)-N-(2-(3-chloro-4′-(4-methylpiperazine-1-carbonyl)biphenyl-4-yloxy)ethyl)acrylamide] yielded a pIC50 (Z138 cells) of over 7.00, a pIC50 (MS751 cells) of over 7.00 and a pIC50 (3T3 cells) of 5.30 to 7.00.
In the case of `CN(CCOc1ccc(-c2ccc(C(=O)N3CC(F)(F)C3)cc2)cc1Cl)C(=O)/C=C/c1ccc(N)nc1` [Compound 334, (E)-3-(6-aminopyridin-3-yl)-N-(2-(3-chloro-4′-(3,3-difluoroazetidine-1-carbonyl)biphenyl-4-yloxy)ethyl)-N-methylacrylamide], the pIC50 (Z138 cells) was over 7.00, the pIC50 (MS751 cells) was 5.30 to 7.00 and the pIC50 (3T3 cells) was 5.00 to 5.30.
With `CC(=O)c1ccc(-c2ccc(OCCNC(=O)/C=C/c3cccnn3)c(Cl)c2)s1` [Compound 310, (E)-N-(2-(4-(5-acetylthiophen-2-yl)-2-chlorophenoxy)ethyl)-3-(pyridazin-3-yl)acrylamide] the pIC50 (Z138 cells) was under 5.00, the pIC50 (MS751 cells) was under 5.00 and the pIC50 (3T3 cells) was under 5.00.
`CC(C)(CNC(=O)/C=C/c1ccc(N)nc1)Oc1ccc(-c2ccc(C(=O)N3CC(F)(F)C3)cc2)cc1Cl` [Compound 333, (E)-3-(6-aminopyridin-3-yl)-N-(2-(3-chloro-4′-(3,3-difluoroazetidine-1-carbonyl)biphenyl-4-yloxy)-2-methylpropyl)acrylamide] showed a pIC50 (Z138 cells) of 5.30 to 7.00, a pIC50 (MS751 cells) of 5.30 to 7.00 and a pIC50 (3T3 cells) of under 5.00.
For `CC(=O)c1ccc(-c2ccc(OC(C)(C)CNC(=O)/C=C/c3cccnc3)c(Cl)c2)s1` [Compound 323, (E)-N-(2-(4-(5-acetylthiophen-2-yl)-2-chlorophenoxy)-2-methylpropyl)-3-(pyridin-3-yl)acrylamide], the pIC50 (Z138 cells) was 5.30 to 7.00, the pIC50 (MS751 cells) was 5.00 to 5.30 and the pIC50 (3T3 cells) was under 5.00.
`CC(=O)c1ccc(-c2cccc(OCCNC(=O)/C=C/c3cccnc3)c2Cl)s1` [Compound 302, (E)-N-(2-(3-(5-acetylthiophen-2-yl)-2-chlorophenoxy)ethyl)-3-(pyridin-3-yl) acrylamide] showed a pIC50 (Z138 cells) of 5.30 to 7.00, a pIC50 (MS751 cells) of over 7.00 and a pIC50 (3T3 cells) of 5.30 to 7.00.
With `Nc1ccc(/C=C/C(=O)NCCOc2ccc(-c3ccc(C(=O)N4CC(F)(F)C4)cc3)cc2C(F)(F)F)cn1` [Compound 338, (E)-3-(6-aminopyridin-3-yl)-N-(2-(4′-(3,3-difluoroazetidine-1-carbonyl)-3-(trifluoromethyl)biphenyl-4-yloxy)ethyl)acrylamide] the pIC50 (Z138 cells) was over 7.00, the pIC50 (MS751 cells) was over 7.00 and the pIC50 (3T3 cells) was over 7.00.
`Nc1ccc(/C=C/C(=O)NCCCOc2cc(Cl)cc(-c3ccc(C(=O)N4CCOCC4)cc3)c2)cn1` [Compound 345, (E)-3-(6-aminopyridin-3-yl)-N-(3-(5-chloro-4′-(morpholine-4-carbonyl)biphenyl-3-yloxy)propyl)acrylamide] was tested, and the pIC50 (Z138 cells) was over 7.00, the pIC50 (MS751 cells) was over 7.00 and the pIC50 (3T3 cells) was 5.30 to 7.00.
With `CC(=O)c1ccc(-c2ccc(OCCNC(=O)/C=C/c3cccnc3C)c(Cl)c2)s1` [Compound 305, (E)-N-(2-(4-(5-acetylthiophen-2-yl)-2-chlorophenoxy)ethyl)-3-(2-methylpyridin-3-yl) acrylamide] the pIC50 (Z138 cells) was under 5.00, the pIC50 (MS751 cells) was under 5.00 and the pIC50 (3T3 cells) was under 5.00.
Work on `CC(=O)c1ccc(-c2ccc(OCCNC(=O)CCc3cccnc3)c(Cl)c2)s1` [Compound 306, N-(2-(4-(5-acetylthiophen-2-yl)-2-chlorophenoxy)ethyl)-3-(pyridin-3-yl)propanamide] yielded a pIC50 (Z138 cells) of under 5.00, a pIC50 (MS751 cells) of 5.00 to 5.30 and a pIC50 (3T3 cells) of under 5.00.
Molecule `CC(=O)c1ccc(-c2ccc(Cl)c(OCCNC(=O)/C=C/c3cccnc3)c2)s1` [Compound 303, (E)-N-(2-(5-(5-acetylthiophen-2-yl)-2-chlorophenoxy)ethyl)-3-(pyridin-3-yl)acrylamide] has a pIC50 (Z138 cells) of 5.30 to 7.00, a pIC50 (MS751 cells) of 5.30 to 7.00 and a pIC50 (3T3 cells) of under 5.00.
`CC(C)(O)c1ccc(-c2ccc(OCCNC(=O)/C=C/c3ccc(N)nc3)c(Cl)c2)s1` [Compound 319, (E)-3-(6-aminopyridin-3-yl)-N-(2-(2-chloro-4-(5-(2-hydroxypropan-2-yl)thiophen-2-yl)phenoxy)ethyl)acrylamide] gave a pIC50 (Z138 cells) of 5.30 to 7.00, a pIC50 (MS751 cells) of 5.30 to 7.00 and a pIC50 (3T3 cells) of under 5.00.
In the case of `CC(C)(CNC(=O)/C=C/c1ccc(N)nc1)Oc1ccc(F)c(-c2ccc(C(=O)N3CCOCC3)cc2)c1` [Compound 340, (E)-3-(6-aminopyridin-3-yl)-N-(2-(6-fluoro-4′-(morpholine-4-carbonyl)biphenyl-3-yloxy)-2-methylpropyl)acrylamide], the pIC50 (Z138 cells) was over 7.00, the pIC50 (MS751 cells) was 5.30 to 7.00 and the pIC50 (3T3 cells) was under 5.00.
`CC(CCOc1cc(-c2ccc(C(=O)N3CCC(F)(F)CC3)cn2)cc(C(F)(F)F)c1)NC(=O)/C=C/c1ccc(N)nc1` (stereo not drawn) [Compound 352, (E)-3-(6-aminopyridin-3-yl)-N-(4-(3-(5-(4,4-difluoropiperidine-1-carbonyl)pyridin-2-yl)-5-(trifluoromethyl)phenoxy)butan-2-yl)acrylamide] gave a pIC50 (Z138 cells) of 5.30 to 7.00, a pIC50 (MS751 cells) of 5.30 to 7.00 and a pIC50 (3T3 cells) of under 5.00.
With `CC(C)(O)c1ccc(-c2ccc(OCCNC(=O)/C=C/c3cccnc3)c(Cl)c2)s1` [Compound 320, (E)-N-(2-(2-chloro-4-(5-(2-hydroxypropan-2-yl)thiophen-2-yl)phenoxy)ethyl)-3-(pyridin-3-yl)acrylamide] the pIC50 (Z138 cells) was 5.30 to 7.00, the pIC50 (MS751 cells) was 5.30 to 7.00 and the pIC50 (3T3 cells) was 5.00 to 5.30.
`CC(O)c1ccc(-c2ccc(OCCNC(=O)/C=C/c3cccnc3)c(Cl)c2)s1` (stereo not drawn) [Compound 301, (E)-N-(2-(2-chloro-4-(5-(1-hydroxyethyl)thiophen-2-yl)phenoxy)ethyl)-3-(pyridin-3-yl) acrylamide] showed a pIC50 (Z138 cells) of 5.30 to 7.00, a pIC50 (MS751 cells) of over 7.00 and a pIC50 (3T3 cells) of 5.30 to 7.00.
`Nc1ccc(/C=C/C(=O)NCCOc2ccc(-c3ccc(C(=O)N4CCNCC4)cc3)cc2Cl)cn1` [Compound 326, (E)-3-(6-aminopyridin-3-yl)-N-(2-(3-chloro-4′-(piperazine-1-carbonyl)biphenyl-4-yloxy)ethyl)acrylamide] gave a pIC50 (Z138 cells) of over 7.00, a pIC50 (MS751 cells) of over 7.00 and a pIC50 (3T3 cells) of 5.30 to 7.00.
In the case of `C=C(C)c1ccc(-c2ccc(OCCNC(=O)/C=C/c3cccnc3)c(Cl)c2)s1` [Compound 315, (E)-N-(2-(2-chloro-4-(5-(prop-1-en-2-yl)thiophen-2-yl)phenoxy)ethyl)-3-(pyridin-3-yl)acrylamide], the pIC50 (Z138 cells) was 5.30 to 7.00, the pIC50 (MS751 cells) was 5.00 to 5.30 and the pIC50 (3T3 cells) was 5.00 to 5.30.
`Nc1ccc(/C=C/C(=O)NCCOc2ccc(-c3ccc(C(=O)N4CCOCC4)cc3)cc2C(F)(F)F)cn1` [Compound 339, (E)-3-(6-aminopyridin-3-yl)-N-(2-(4′-(morpholine-4-carbonyl)-3-(trifluoromethyl)biphenyl-4-yloxy)ethyl)acrylamide] was tested, and the pIC50 (Z138 cells) was over 7.00, the pIC50 (MS751 cells) was over 7.00 and the pIC50 (3T3 cells) was 5.30 to 7.00.
